Results from US20080146540A1, “Methods of diagnosis and treatment for asthma, allergic rhinitis and other respiratory diseases based on haplotype association” (priority 2003, published 2008).
Like-named read-outs stand apart in the source and are kept apart here.

Legend:
IL-8 = experiment: Phase II clinical study CEP-1347-201: sputum IL-8; format: in vivo, human; conditions: samples not collected in a systematic manner
IL-6 = experiment: Phase II clinical study CEP-1347-201: sputum IL-6; format: in vivo, human; conditions: samples not collected in a systematic manner
TNFα [1] = conditions: standard in vitro pharmacological testing procedures (WO 97/49406); cited from earlier work
TNFα [2] = conditions: lipopolysaccharide challenge; cited from earlier work
asthma patients [3] = conditions: for patients reporting diarrhea: placebo 8%
MMP-9 = experiment: Phase II clinical study CEP-1347-201: MMP-9 change from baseline; format: in vivo, human; conditions: for MMP-9 Change from Baseline at Week 8, LS Mean: ANCOVA
Description: Matrix metalloproteinases (MMPs) are members of a family of proteolytic enzymes that degrade the extracellular matrix and […] tissue inhibitors (TIMPs). Up regulation of MMP-9 results in subepithelial collagen deposition and airway remodeling leading to irreversible airways obstruction in asthma patients. Airway remodeling has and continues to be a research goal of anti-asthma therapies. […] The change in the […] reached statistical significance and the comparison of the pooled CEP-1347 groups versus placebo approached statistical significance (p=0.06).

asthma patients [4] = experiment: Phase II clinical study CEP-1347-201: asthma exacerbations and airway remodeling; format: in vivo, human
Description: However, given the near normal lung function of the population evaluated in this exploratory Phase 2 trial, positive trends can only be established with respect to the effects of CEP-1347 in asthma due to lack of statistical significance in certain aspects of the study. Furthermore, the trial patient numbers for at-risk haplotype carriers were not large enough to achieve significant power to adequately test the effect on these haplotype positive patients. The asthma patients enrolled into CEP-1347-201 were well treated with near normal lung function and any apparent lack of treatment effect could be attributed, in part, to deficiencies in study design as opposed to a lack of CEP-1347 effect.
The term “airway remodeling” in bronchial asthma refers to structural changes that occur in conjunction with, or because of, chronic airway inflammation. Airway remodeling results in alterations in the airway epithelium, lamina propria, and submucosa, leading to thickening of the airway wall. Another common attribute of asthmatic airways is eosinophilia. Eosinophils expressing the CCR3 chemokine receptor are drawn from pulmonary circulation primarily by Eotaxin/CCL11, which is overexpressed in asthmatic respiratory membrane epithelial cells, fibroblasts, and smooth muscle cells. […]

[5] = test system: exhaled nitric oxide (eNO); experiment: Phase II clinical study CEP-1347-201: exhaled nitric oxide (eNO) change from baseline; format: in vivo, human; conditions: for eNO Change from Baseline at Week 8, LS Mean: ANCOVA
Description: eNO has been used as a biomarker for measuring airways inflammation. eNO correlates with eosinophilic inflammation in asthmatic patients and is increased in patients with untreated asthma and decreased with corticosteroid treatment.

SMILES: CCSCc1ccc2c(c1)c1c3c(c4c5cc(CSCC)ccc5n5c4c1n2C1CC(O)(C(=O)OC)C5(C)O1)CNC3=O (centres unmarked) [CEP-1347]
- sputum IL-8 (ANCOVA) (IL-8): no clear treatment related trends or statistically significant changes
- sputum IL-6 (ANCOVA) (IL-6): no clear treatment related trends or statistically significant changes
- production of TNFα by cultured cells (TNFα [1]): inhibit the production
- production of TNFα by mice after LPS challenge (TNFα [2]): reduces production
- subjects reporting a severe adverse event (asthma patients [3]; 10 mg BID group): 2
- subjects reporting a severe adverse event (asthma patients [3]; 25 mg BID group): 1
- subjects reporting a severe adverse event (asthma patients [3]; 50 mg BID group): 1
- patients reporting diarrhea (asthma patients [3]; CEP-1347 groups, all doses combined): 15%
- subjects reporting a severe adverse event, total (asthma patients [3]; all groups): four
- patients reporting diarrhea (asthma patients [3]; high dose group (50 mg BID)): 20%
- headache incidence (asthma patients [3]; treatment group (all CEP-1347 doses), placebo 5%): 9%
- deaths (asthma patients [3]; whole study): no deaths
- MMP 9 Change from baseline, Mean (MMP-9; 10 mg BID, 4 Weeks): -89.2 pg/mL
- MMP 9 Change from baseline, Median (MMP-9; 10 mg BID, 4 Weeks): -79.4 pg/mL
- MMP 9 Observed Values, Mean (MMP-9; 10 mg BID, 4 Weeks): 723.4 pg/mL
- MMP 9 Observed Values, Median (MMP-9; 10 mg BID, 4 Weeks): 636.5 pg/mL
- MMP 9 Change from baseline, Mean (MMP-9; 10 mg BID, 8 Weeks): -108.5 pg/mL
- MMP 9 Change from baseline, Median (MMP-9; 10 mg BID, 8 Weeks): -87.6 pg/mL
- MMP 9 Observed Values, Mean (MMP-9; 10 mg BID, 8 Weeks): 687.4 pg/mL
- MMP 9 Observed Values, Median (MMP-9; 10 mg BID, 8 Weeks): 596.2 pg/mL
- MMP-9 Change from Baseline at Week 8, LS Mean (MMP-9; 10 mg BID, p 0.23): −98.4
- MMP-9 change from baseline at week 8 (ANCOVA) (MMP-9; 25 mg BID group relative to placebo, p=0.04): statistically significant reduction
- MMP 9 Change from baseline, Mean (MMP-9; 25 mg BID, 4 Weeks): -104.2 pg/mL
- MMP 9 Change from baseline, Median (MMP-9; 25 mg BID, 4 Weeks): -104.8 pg/mL
- MMP 9 Observed Values, Mean (MMP-9; 25 mg BID, 4 Weeks): 660.4 pg/mL
- MMP 9 Observed Values, Median (MMP-9; 25 mg BID, 4 Weeks): 623.4 pg/mL
- MMP 9 Change from baseline, Mean (MMP-9; 25 mg BID, 8 Weeks): -147.6 pg/mL
- MMP 9 Change from baseline, Median (MMP-9; 25 mg BID, 8 Weeks): -85.0 pg/mL
- MMP 9 Observed Values, Mean (MMP-9; 25 mg BID, 8 Weeks): 633.5 pg/mL
- MMP 9 Observed Values, Median (MMP-9; 25 mg BID, 8 Weeks): 582.1 pg/mL
- MMP-9 Change from Baseline at Week 8, LS Mean (MMP-9; 25 mg BID, p 0.04): −144
- MMP 9 Change from baseline, Mean (MMP-9; 50 mg BID, 4 Weeks): -82.4 pg/mL
- MMP 9 Change from baseline, Median (MMP-9; 50 mg BID, 4 Weeks): -63.6 pg/mL
- MMP 9 Observed Values, Mean (MMP-9; 50 mg BID, 4 Weeks): 704.1 pg/mL
- MMP 9 Observed Values, Median (MMP-9; 50 mg BID, 4 Weeks): 704.2 pg/mL
- MMP 9 Change from baseline, Mean (MMP-9; 50 mg BID, 8 Weeks): -114.0 pg/mL
- MMP 9 Change from baseline, Median (MMP-9; 50 mg BID, 8 Weeks): -60.1 pg/mL
- MMP 9 Observed Values, Mean (MMP-9; 50 mg BID, 8 Weeks): 682.5 pg/mL
- MMP 9 Observed Values, Median (MMP-9; 50 mg BID, 8 Weeks): 655.1 pg/mL
- MMP-9 Change from Baseline at Week 8, LS Mean (MMP-9; 50 mg BID, p 0.19): −104
- MMP-9 change from baseline at week 8 (ANCOVA) (MMP-9; all CEP-1347 treatment groups relative to placebo, pooled groups vs placebo p=0.06): greater reduction
- asthma exacerbations (asthma patients [4]; 50 mg BID group, positive trend only): reduction of exacerbations
- progression of airway remodeling (asthma patients [4]; in particular with the 25 mg BID dose (FIG. 13)): Positive effects
- eNO Change from Baseline at Week 8, LS Mean ([5]; 10 mg BID, p 0.26): −4.86
- eNO Change from Baseline at Week 8, LS Mean ([5]; 25 mg BID, p 0.86): −1.88
- eNO Change from Baseline at Week 8, LS Mean ([5]; 50 mg BID, p 0.58): −3.08
- eNO change from baseline at week 8 (ANCOVA) ([5]; all CEP-1347 treatment groups relative to placebo, none of the changes achieved statistical significance): greater decrease
